This is an account of results in BindingDB's records for doi:10.1074/jbc.M608182200 (Johnson & Johnson Pharmaceutical, 2007).

What all share (assay): cFMs Autophosphorylation Fluorescence Polarization End Point Assay.
Common to all, as to settings: pH 7.5; 22 °C
(In general: In fluorescence polarisation assays a small probe gives low polarisation when free and higher when bound to something large.)

In assay [1] the target is T1, Macrophage colony-stimulating factor 1 receptor [538-972] (UniProt P07333).
T1 construct: 538-972
T1 sequence (P07333 whole entry): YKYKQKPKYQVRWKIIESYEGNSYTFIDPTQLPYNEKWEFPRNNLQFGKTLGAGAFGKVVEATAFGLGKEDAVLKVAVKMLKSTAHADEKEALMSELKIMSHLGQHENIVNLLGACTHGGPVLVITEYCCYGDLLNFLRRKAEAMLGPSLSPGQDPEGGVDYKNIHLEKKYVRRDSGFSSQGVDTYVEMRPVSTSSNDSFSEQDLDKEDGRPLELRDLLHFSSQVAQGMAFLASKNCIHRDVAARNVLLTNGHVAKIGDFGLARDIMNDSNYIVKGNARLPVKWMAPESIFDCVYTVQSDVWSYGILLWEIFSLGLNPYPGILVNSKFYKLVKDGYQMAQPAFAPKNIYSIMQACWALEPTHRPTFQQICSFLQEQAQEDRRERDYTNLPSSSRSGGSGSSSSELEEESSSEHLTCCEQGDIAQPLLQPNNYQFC
The procedure: (§1) Control reactions were run in each plate. Assay buffer was substituted for the compound in positive and negative control wells. The fluorescence polarization was measured after 30 min of incubation. […] The IC50 values reported are the averages of three independent measurements.

For assay [2], the target named is T2, Macrophage colony-stimulating factor 1 receptor [538-678,753-922] (Homo sapiens, UniProt P07333).
T2 construct: 538-678,753-922
T2 sequence (P07333 whole entry): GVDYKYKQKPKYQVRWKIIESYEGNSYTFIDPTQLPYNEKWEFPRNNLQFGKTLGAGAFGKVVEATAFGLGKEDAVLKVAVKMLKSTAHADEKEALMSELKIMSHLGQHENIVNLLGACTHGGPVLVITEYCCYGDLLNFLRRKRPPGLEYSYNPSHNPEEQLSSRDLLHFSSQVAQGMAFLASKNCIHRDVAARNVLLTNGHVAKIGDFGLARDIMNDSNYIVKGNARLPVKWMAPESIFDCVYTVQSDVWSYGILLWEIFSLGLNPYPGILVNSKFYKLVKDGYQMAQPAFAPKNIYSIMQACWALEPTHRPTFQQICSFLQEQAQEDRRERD
The procedure: as §1

Assay [3] has as its target T3, Macrophage colony-stimulating factor 1 receptor [538-678,753-922] (Homo sapiens, UniProt P07333).
T3 construct: 538-678,753-922
T3 sequence (P07333 whole entry): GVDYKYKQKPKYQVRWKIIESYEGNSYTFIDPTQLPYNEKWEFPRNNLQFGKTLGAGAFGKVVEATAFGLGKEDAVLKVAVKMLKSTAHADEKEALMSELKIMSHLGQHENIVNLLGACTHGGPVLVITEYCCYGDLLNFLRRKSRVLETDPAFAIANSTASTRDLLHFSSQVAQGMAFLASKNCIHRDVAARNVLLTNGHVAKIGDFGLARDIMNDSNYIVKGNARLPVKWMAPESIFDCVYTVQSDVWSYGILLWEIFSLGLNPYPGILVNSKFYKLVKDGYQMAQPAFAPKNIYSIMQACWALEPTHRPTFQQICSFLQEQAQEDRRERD
Here is the method:
as §1
The source holds these as a separate data set.

The term IC50 denotes the concentration that gives 50% inhibition. High values mean weaker potency in that assay, low ones greater potency in that assay. Turning to `Cc1cc2ncc(-c3ccc(O)c(O)c3)nc2cc1C` [2-(3,4-Dihydroxyphenyl)-6,7-dimethylquinoxaline], the IC50 in assay [1] was found to be 10 µM; in assay [2] it was 9.4 µM; in assay [3], 8.3 µM.

In the case of `O=Nc1c(C2C(=O)Nc3ccccc32)[nH]c2ccccc12` (configuration not stated) [Indirubin-3 -monoxime], the IC50 came to 4.8 µM in assay [1], 4.2 µM in assay [2] and 4.5 µM in assay [3].

In the case of `CN(C)CCNC(=O)N1CCN(Cc2cc(C(F)(F)F)cc(C(F)(F)F)c2)CC1` [JNJ31117164], the IC50 in assay [1] turned out to be 1.2 µM; in assay [2], 1.2 µM; in assay [3] it was 1.3 µM.

On to `N#C/C(=C\c1ccc(O)c(O)c1)C(N)=S` [alpha-Cyano-(3,4-dihydroxy)thiocinnamide], for which the IC50 in assay [1] was found to be 2.9 µM; in assay [2], 3 µM; in assay [3], 3.3 µM.
